In ChEMBL document CHEMBL3228022, “Synthesis of 2,3,4,4a,5,9b-hexahydro-1H-pyrido[4,3-b]indole derivatives and their central nervous system activities” (1979):
Activity calls are given as the source filed them. No cut-off for these calls is given here.

Key:
Rattus norvegicus [1] = assay: Neuroleptic activity in Wistar HLA rat assessed as stimulation of methamphetamine-induced stereotyped behavior at 10 mg/kg, ip administered 20 mins before methamphetamine challenge measured every 30 mins for 3 hrs followed by every 1 hr for further 3 hrs; assay type: functional; conditions: route intraperitoneal
Rattus norvegicus [2] = assay: Neuroleptic activity in Wistar HLA rat assessed as inhibition of methamphetamine-induced stereotyped behavior at 1 mg/kg, ip administered 20 mins before methamphetamine challenge measured every 30 mins for 3 hrs followed by every 1 hr for further 3 hrs; assay type: functional; parameters: Activity: scale not given: the % may be the effect or the level left; conditions: route intraperitoneal
Rattus norvegicus [3] = assay: Neuroleptic activity in Wistar HLA rat assessed as inhibition of methamphetamine-induced stereotyped behavior at 2 mg/kg, ip administered 20 mins before methamphetamine challenge measured every 30 mins for 3 hrs followed by every 1 hr for further 3 hrs; assay type: functional; parameters: Activity: scale not given: the % may be the effect or the level left; conditions: route intraperitoneal
Mus musculus [4] = assay: Neuroleptic activity in STD-ddy mouse assessed as catalepsy at 100 mg/kg, po measured up to 30 secs; assay type: functional, organism-based; parameters: dose 100 mg/kg
Mus musculus [5] = assay: Neuroleptic activity in STD-ddy mouse assessed as inhibition of locomotion at 100 mg/kg, po measured for 3 mins; assay type: functional; conditions: 0.05 h
Mus musculus [6] = assay: Neuroleptic activity in po dosed STD-ddy mouse assessed as catalepsy measured up to 30 secs; assay type: functional
Rattus norvegicus [7] = assay: Neuroleptic activity in po dosed Wistar HLA rat assessed as inhibition of intracranial self-stimulation measured for 1 to 24 hrs; assay type: functional
Mus musculus [8] = assay: Neuroleptic activity in po dosed STD-ddy mouse assessed as inhibition of locomotion measured for 3 mins; assay type: functional; conditions: 0.05 h
Rattus norvegicus [9] = assay: Neuroleptic activity in Wistar HLA rat assessed as stimulation of methamphetamine-induced stereotyped behavior at 5 mg/kg, ip administered 20 mins before methamphetamine challenge measured every 30 mins for 3 hrs followed by every 1 hr for further 3 hrs; assay type: functional; conditions: route intraperitoneal
Mus musculus [10] = assay: Neuroleptic activity in STD-ddy mouse assessed as inhibition of locomotion at 10 mg/kg, po measured for 3 mins; assay type: functional; conditions: 0.05 h
Mus musculus [11] = assay: Neuroleptic activity in po dosed STD-ddy mouse assessed as inhibition of active avoidance; assay type: functional
Mus musculus [12] = assay: Neuroleptic activity in STD-ddy mouse assessed as muscle relaxation at 100 mg/kg, po after 20 mins; assay type: functional, organism-based; parameters: dose 100 mg/kg
Rattus norvegicus [13] = assay: Neuroleptic activity in Wistar HLA rat assessed as inhibition of methamphetamine-induced stereotyped behavior at 10 mg/kg, ip administered 20 mins before methamphetamine challenge measured every 30 mins for 3 hrs followed by every 1 hr for further 3 hrs; assay type: functional; conditions: Rattus norvegicus, Wistar HLA, ip, route intraperitoneal
Rattus norvegicus [14] = assay: Neuroleptic activity in Wistar HLA rat assessed as inhibition of methamphetamine-induced stereotyped behavior at 5 mg/kg, ip administered 20 mins before methamphetamine challenge measured every 30 mins for 3 hrs followed by every 1 hr for further 3 hrs; assay type: functional; parameters: Activity: scale not given: the % may be the effect or the level left; conditions: route intraperitoneal
Mus musculus [15] = assay: Neuroleptic activity in po dosed STD-ddy mouse assessed as inhibition of methamphetamine-induced stereotyped behavior administered 100 mins before methamphetamine challenge measured for 20 mins; assay type: functional
Rattus norvegicus [16] = assay: Neuroleptic activity in Wistar HLA rat assessed as stimulation of methamphetamine-induced stereotyped behavior at 2 mg/kg, ip administered 20 mins before methamphetamine challenge measured every 30 mins for 3 hrs followed by every 1 hr for further 3 hrs; assay type: functional; conditions: route intraperitoneal
Rattus norvegicus [17] = assay: Neuroleptic activity in sc dosed Wistar HLA rat assessed as inhibition of apomorphine-induced gnawing administered 1 hr before apomorphine challenge measured 5 to 20 mins; assay type: functional
Rattus norvegicus [18] = assay: Neuroleptic activity in ip dosed Wistar HLA rat assessed as inhibition of intracranial self-stimulation measured for 1 to 24 hrs; assay type: functional
Rattus norvegicus [19] = assay: Neuroleptic activity in Wistar HLA rat assessed as inhibition of methamphetamine-induced stereotyped behavior at 0.1 mg/kg, ip administered 20 mins before methamphetamine challenge measured every 30 mins for 3 hrs followed by every 1 hr for further 3 hrs; assay type: functional; parameters: scale not given: the % may be the effect or the level left; conditions: route intraperitoneal
Rattus norvegicus [20] = assay: Neuroleptic activity in Wistar HLA rat assessed as inhibition of methamphetamine-induced stereotyped behavior at 0.5 mg/kg, ip administered 20 mins before methamphetamine challenge measured every 30 mins for 3 hrs followed by every 1 hr for further 3 hrs; assay type: functional; parameters: scale not given: the % may be the effect or the level left; conditions: route intraperitoneal
Rattus norvegicus [21] = assay: Neuroleptic activity in Wistar HLA rat assessed as inhibition of methamphetamine-induced stereotyped behavior at 0.2 mg/kg, ip administered 20 mins before methamphetamine challenge measured every 30 mins for 3 hrs followed by every 1 hr for further 3 hrs; assay type: functional; parameters: scale not given: the % may be the effect or the level left; conditions: route intraperitoneal
[22] = Rattus norvegicus, Wistar HLA, ip

Compound `Cc1ccc2c(c1)[C@H]1CN(CCCC(=O)c3ccc(F)cc3)CC[C@H]1N2C.Cl` (relative stereo) has an Activity (Rattus norvegicus [1]) of 50%, an Activity (Rattus norvegicus [2]) of 0% and an Activity (Rattus norvegicus [3]) of 0%. For the same compound, the Activity (Mus musculus [4]) was “Active”, the inhibition in vivo at 100 mg/kg (Mus musculus [5]) was 95.8% and the ED50 (Mus musculus [6]) was 40.3 mg/kg. For the same compound, the ED50 (Rattus norvegicus [7]) was 30 mg/kg, the ED50 (Mus musculus [8]) was 10.2 mg/kg and the Activity (Rattus norvegicus [9]) was 50%. The inhibition in vivo at 10 mg/kg (Mus musculus [10]) was 55.8% and the ED50 (Mus musculus [11]) was 20.1 mg/kg.
For `CCN1c2ccc(C)cc2[C@H]2CN(CCCC(=O)c3ccc(F)cc3)CC[C@H]21.Cl` (relative stereo), the Activity (Rattus norvegicus [1]) was over 75%, the Activity (Rattus norvegicus [2]) was 0% and the Activity (Rattus norvegicus [3]) was 0%. The Activity (Mus musculus [4]) was “Active”, the inhibition in vivo at 100 mg/kg (Mus musculus [5]) was 92.9% and the Activity (Rattus norvegicus [9]) was over 75%. For the same compound, the inhibition in vivo at 10 mg/kg (Mus musculus [10]) was 34% and the Activity (Mus musculus [12]) was “Active”.
`CC(=O)N1c2ccc(C)cc2[C@H]2CN(CCCC(=O)c3ccc(F)cc3)CC[C@H]21` (relative stereo) was tested, and the Activity (Mus musculus [4]) was “inactive”, the inhibition in vivo at 100 mg/kg (Mus musculus [5]) was 21.7% and the Activity (Mus musculus [12]) was “inactive”.
In the case of `Fc1ccc2c(c1)[C@H]1CN(Cc3ccccc3)CC[C@@H]1N2` (relative stereo), the Activity (Mus musculus [4]) is reported as “inactive”, the inhibition in vivo at 100 mg/kg (Mus musculus [5]) is reported as 76.1% and the Activity (Mus musculus [12]) is reported as “inactive”.
In the case of `Cc1ccc2c(c1)[C@H]1CN(Cc3ccccc3)CC[C@@H]1N2` (relative stereo), the inhibition in vivo at 100 mg/kg (Mus musculus [5]) is reported as 17.9% and the Activity (Mus musculus [12]) is reported as “inactive”.
With `Cc1ccc2c(c1)[C@H]1CN(C)CC[C@@H]1N2` (relative stereo) the Activity (Mus musculus [4]) was “inactive”, the inhibition in vivo at 100 mg/kg (Mus musculus [5]) was 79.7% and the Activity (Mus musculus [12]) was “inactive”.
With `Cc1ccc2c(c1)[C@H]1CN(CCO)CC[C@@H]1N2` (relative stereo) the Activity (Mus musculus [4]) was “inactive”, the inhibition in vivo at 100 mg/kg (Mus musculus [5]) was -5.6% and the Activity (Mus musculus [12]) was “inactive”.
With `CC(=O)CCN1CC[C@@H]2Nc3ccc(C)cc3[C@H]2C1` (relative stereo) the inhibition in vivo at 100 mg/kg (Mus musculus [5]) was -15.5% and the Activity (Mus musculus [12]) was “inactive”.
`Cl.O=C(CCCN1CC[C@@H]2Nc3ccc(F)cc3[C@H]2C1)c1ccc(F)cc1` (relative stereo) showed an inhibition in vivo at 100 mg/kg (Mus musculus [5]) of 92.2%, an ED50 (Mus musculus [6]) of 8.08 mg/kg and an ED50 (Rattus norvegicus [7]) of 4.54 mg/kg. For the same compound, the ED50 (Mus musculus [8]) was 7.12 mg/kg and the ED50 (Mus musculus [11]) was 5.19 mg/kg.
Work on `Cc1ccc2c(c1)[C@H]1CN(CCCC(=O)c3ccc(F)cc3)CC[C@@H]1N2.Cl` (relative stereo) yielded an Activity (Rattus norvegicus [2]) of 25%, an inhibition in vivo at 10 mg/kg (Rattus norvegicus [13]) of over 75% and an inhibition in vivo at 2 mg/kg (Rattus norvegicus [3]; [22]) of 50%. It also gave an inhibition in vivo at 100 mg/kg (Mus musculus [5]) of 86.5%, an ED50 (Mus musculus [6]) of 7.18 mg/kg and an inhibition in vivo at 5 mg/kg (Rattus norvegicus [14]; [22]) of over 75%. The ED50 (Rattus norvegicus [7]) was 6.28 mg/kg, the ED50 (Mus musculus [8]) was 9.73 mg/kg and the ED50 (Mus musculus [11]) was 9.73 mg/kg.
`CN1c2ccc(F)cc2[C@H]2CN(CCCC(=O)c3ccc(F)cc3)CC[C@@H]21.O=C(O)/C=C\C(=O)O` (relative stereo) showed an inhibition in vivo at 100 mg/kg (Mus musculus [5]) of 92.7%, an ED50 (Mus musculus [6]) of 30.7 mg/kg and an ED50 (Rattus norvegicus [7]) of 7.37 mg/kg. The ED50 (Mus musculus [8]) was 12.8 mg/kg and the ED50 (Mus musculus [11]) was 4.58 mg/kg.
For `Cc1ccc2c(c1)[C@H]1CN(CCCC(=O)c3ccc(F)cc3)CC[C@@H]1N2C.O=C(O)/C=C\C(=O)O` (relative stereo), the Activity (Mus musculus [4]) was “Active”, the inhibition in vivo at 100 mg/kg (Mus musculus [5]) was 97.4% and the ED50 (Mus musculus [6]) was 55.9 mg/kg. The ED50 (Rattus norvegicus [7]) was 8.44 mg/kg, the ED50 (Mus musculus [8]) was 14.5 mg/kg and the ED50 (Mus musculus [11]) was 11.5 mg/kg.
With `Cc1ccc2c(c1)[C@H]1CN(C)CC[C@H]1N2` (relative stereo) [STOBADINE] the Activity (Rattus norvegicus [1]) was over 75%, the Activity (Rattus norvegicus [2]) was 0% and the ED50 (Mus musculus [15]) was over 100 mg/kg. For the same compound, the Activity (Rattus norvegicus [16]) was 25%, the Activity (Mus musculus [4]) was “inactive” and the inhibition in vivo at 100 mg/kg (Mus musculus [5]) was 37.6%. It also gave an ED50 (Mus musculus [6]) of over 150 mg/kg, an ED50 (Rattus norvegicus [7]) of over 100 mg/kg and an ED50 (Mus musculus [8]) of 150 mg/kg. The Activity (Rattus norvegicus [9]) was 50%, the ED50 (Rattus norvegicus [17]) was over 100 mg/kg and the Activity (Mus musculus [12]) was “inactive”.
Work on `CN(C)CCCN1c2ccccc2Sc2ccc(Cl)cc21` [CHLORPROMAZINE] yielded an ED50 (Mus musculus [15]) of 13.3 mg/kg, an inhibition in vivo at 10 mg/kg (Rattus norvegicus [13]) of over 75% and an Activity (Rattus norvegicus [3]) of 0%. The Activity (Mus musculus [4]) was “Active”, the inhibition in vivo at 100 mg/kg (Mus musculus [5]) was 97.4% and the ED50 (Mus musculus [6]) was 9.97 mg/kg. The Activity (Rattus norvegicus [14]) was 50%, the ED50 (Mus musculus [8]) was 7.42 mg/kg and the inhibition in vivo at 10 mg/kg (Mus musculus [10]) was 67.6%. The ED50 (Rattus norvegicus [18]) was 2.1 mg/kg, the ED50 (Rattus norvegicus [17]) was 3.25 mg/kg and the Activity (Mus musculus [12]) was “Active”. For the same compound, the ED50 (Mus musculus [11]) was 5.59 mg/kg.
`O=C(CCCN1CCC(O)(c2ccc(Cl)cc2)CC1)c1ccc(F)cc1` [HALOPERIDOL] was tested, and the inhibition in vivo at 1 mg/kg (Rattus norvegicus [2]; [22]) was over 75%, the Activity (Rattus norvegicus [19]) was 0% and the Activity (Rattus norvegicus [20]) was over 75%. For the same compound, the Activity (Rattus norvegicus [21]) was 25%.
